Legend:
Format in all cases: cell-based
C. albicans DAY185 [1] = assay: NaCl induced osmotic stress growth assay; conditions: 2 μg/mL A16; untreated control 1.25 M
Protocol: (§1) Caspofungin (Merck) served as a known antifungal compound control. In vitro hyphal inhibition was assessed by incubation of DAY185 in RPMI 1640 media at 37° C. After 48 hours the cultures were visually inspected for hyphal formation by microscopy. The ability of the antifungal compound A16, at either 2 or 4 μg/mL, to induce osmotic stress was assessed using DAY185 grown in a 96 well microtiter plate containing RPMI 1640 media and NaCl, ranging in concentrations from 0-2 M in 0.25 M increments. The growth of the fungus was measured spectrophotometrically after 48 hours of growth at 35° C.
The C. albicans cell wall and membrane are important for osmoregulation to maintain proper physiological conditions to carryout enzymatic reactions. Since saponins are able to disrupt the fungal cell membrane, external osmotic stress should also have detrimental effects on the fungal cell. C. albicans was grown in the presence of 2 μg/mL of compound A16 under various salt concentrations to assess the effect the saponin has on salt induced osmotic stress.

C. albicans DAY185 [2] = assay: photodynamic inactivation (PDI) with photosensitizers; conditions: 4 μg/mL A16, 10 μM PEI-ce6
Protocol: The PS used were Rose Bengal (RB, Sigma-Aldrich, St. Louis, Mo.) and chlorin(e6) (ce6, Frontier Scientific, Logan, Utah). PEI-ce6 was synthesized as a covalent conjugate between polyethylenimine (MW range 10,000-25,000, an average of one ce6 per chain) and ce6 as described previously (Tegos et al., Antimicrob Agents Chemother, 50:1402-1410 (2006)). Stock solutions were prepared in water at a concentration of 2 mM and stored for a maximum of 2 weeks in the dark at 4° C. before use. Spectra of stock solutions of PS diluted 140- to 280-fold in methanol were recorded. A noncoherent light source with interchangeable fiber bundles (LC122; LumaCare, London, United Kingdom) was employed. Thirty-nanometer-band-pass filters at ranges of 540±15 nm for RB, and 660±15 nm for ce6 and PEI-ce6 were used. […]
Photodynamic inactivation utilizes a non-toxic dye, or photosensitizer (PS), which is able to generate reactive oxygen species, such as singlet oxygen and hydroxyl radical, in the presence of oxygen and low-intensity light of the correct wavelength to be absorbed by the PS ultimately producing toxic effects in microbial cells (Fuchs et al., Antimicrob Agents Chemother, 51:2929-2936 (2007)). […] The survival fraction and uptake (molecules/cell) of C. albicans was determined for PDI mediated by the 3 different PSs with or without A16 pre-incubation for various time periods ranging between 1-24 hours. […]

[3] = system: C. albicans DAY185 hyphae; assay: in vitro hyphal inhibition in RPMI 1640
Protocol: as §1
C. albicans biofilms are composed of hyphae, pseudohyphae, yeast cells, and an extracellular matrix, where the hyphae play an integral role within this complex. In order to address the reduction in biofilm formation in the presence of saponins, we tested the ability of compound A16 to inhibit hyphae formation at various concentrations in RPMI.

In the case of `CC1CC[C@@]2(OC1)O[C@H]1CC3C4C[C@@H](O)C5C[C@@H](O[C@@H]6O[C@H](CO)[C@H](O[C@@H]7O[C@H](CO)[C@@H](O)[C@H](O[C@@H]8OC[C@@H](O)[C@H](O)[C@H]8O)[C@H]7O[C@@H]7O[C@H](CO)[C@@H](O)[C@H](O)[C@H]7O)[C@H](O)[C@H]6O)[C@H](O)C[C@]5(C)C4CC[C@]3(C)[C@H]1[C@@H]2C` (stereo partly shown) [A16, Aginoside], the “NaCl concentration at which the fungus was unable to grow” value (C. albicans DAY185 [1]) is reported as 0.5 M, the “killing by PEI-ce6 mediated PDI after pre-incubation with A16” value (C. albicans DAY185 [2]) is reported as “does not change dramatically” and the hyphae formation ([3]; 1 μg/mL) is reported as “visible reduction in the number of hyphae”. The hyphae formation ([3]; 2 μg/mL) was “very few hyphae formed”.
